Laboratory results as given in PubChem BioAssay (NCI).
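Tested at 5 concentrations; 48 h exposure; 96-well plates; endpoints linearly interpolated, else capped at highest concentration. TGI marks complete inhibition of growth.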

What was measured:
Test in all cases: NCI-60 cell line screen, 48 h
786-0 renal = system: 786-0 renal
A498 renal = system: A498 renal
A549 NSCLC = system: A549 NSCLC
ACHN renal = system: ACHN renal
CAKI-1 renal = system: CAKI-1 renal
CCRF-CEM leukemia = system: CCRF-CEM leukemia
COLO 205 colon = system: COLO 205 colon
DLD-1 colon = system: DLD-1 colon
DMS 114 small cell lung = system: DMS 114 small cell lung
DMS 273 small cell lung = system: DMS 273 small cell lung
EKVX NSCLC = system: EKVX NSCLC
HCC-2998 colon = system: HCC-2998 colon
HCT-116 colon = system: HCT-116 colon
HCT-15 colon = system: HCT-15 colon
HL-60(TB) leukemia = system: HL-60(TB) leukemia
HOP-18 NSCLC = system: HOP-18 NSCLC
HOP-62 NSCLC = system: HOP-62 NSCLC
HOP-92 NSCLC = system: HOP-92 NSCLC
HT29 colon = system: HT29 colon
IGROV1 ovarian = system: IGROV1 ovarian
K-562 leukemia = system: K-562 leukemia
KM20L2 colon = system: KM20L2 colon
LOX IMVI melanoma = system: LOX IMVI melanoma
LXFL 529 NSCLC = system: LXFL 529 NSCLC
M14 melanoma = system: M14 melanoma
M19-MEL melanoma = system: M19-MEL melanoma
MALME-3M melanoma = system: MALME-3M melanoma
MOLT-4 leukemia = system: MOLT-4 leukemia
NCI-H226 lung = system: NCI-H226 lung
NCI-H23 lung = system: NCI-H23 lung
NCI-H522 lung = system: NCI-H522 lung
OVCAR-3 ovarian = system: OVCAR-3 ovarian
OVCAR-4 ovarian = system: OVCAR-4 ovarian
OVCAR-5 ovarian = system: OVCAR-5 ovarian
OVCAR-8 ovarian = system: OVCAR-8 ovarian
RPMI-8226 leukemia = system: RPMI-8226 leukemia
RXF-631 renal = system: RXF-631 renal
SF-268 CNS = system: SF-268 CNS
SF-295 CNS = system: SF-295 CNS
SF-539 CNS = system: SF-539 CNS
SK-MEL-2 melanoma = system: SK-MEL-2 melanoma
SK-MEL-28 melanoma = system: SK-MEL-28 melanoma
SK-MEL-5 melanoma = system: SK-MEL-5 melanoma
SK-OV-3 ovarian = system: SK-OV-3 ovarian
SN12C renal = system: SN12C renal
SNB-19 CNS = system: SNB-19 CNS
SNB-75 CNS = system: SNB-75 CNS
SNB-78 CNS = system: SNB-78 CNS
SR leukemia = system: SR leukemia
SW-620 colon = system: SW-620 colon
TK-10 renal = system: TK-10 renal
U251 CNS = system: U251 CNS
UACC-257 melanoma = system: UACC-257 melanoma
UACC-62 melanoma = system: UACC-62 melanoma
UO-31 renal = system: UO-31 renal
KM12 colon = system: KM12 colon
NCI-H460 lung = system: NCI-H460 lung
RXF 393 renal = system: RXF 393 renal

CCOc1ccc(NC(=O)/C(=C\c2ccc(C)cc2)C(C)=O)cc1
TGI (786-0 renal): > 100 µM
TGI (A498 renal): > 100 µM
TGI (A549 NSCLC): > 100 µM
TGI (ACHN renal): > 100 µM
TGI (CAKI-1 renal): > 100 µM
TGI (CCRF-CEM leukemia): > 100 µM
TGI (COLO 205 colon): > 100 µM
TGI (DLD-1 colon): > 100 µM
TGI (DMS 114 small cell lung): > 100 µM
TGI (DMS 273 small cell lung): > 100 µM
TGI (EKVX NSCLC): > 100 µM
TGI (HCC-2998 colon): > 100 µM
TGI (HCT-116 colon): > 100 µM
TGI (HCT-15 colon): > 100 µM
TGI (HL-60(TB) leukemia): > 100 µM
TGI (HOP-18 NSCLC): > 100 µM
TGI (HOP-62 NSCLC): > 100 µM
TGI (HOP-92 NSCLC): > 100 µM
TGI (HT29 colon): > 100 µM
TGI (IGROV1 ovarian): > 100 µM
TGI (K-562 leukemia): > 100 µM
TGI (KM20L2 colon): > 100 µM
TGI (LOX IMVI melanoma): > 100 µM
TGI (LXFL 529 NSCLC): > 100 µM
TGI (M14 melanoma): > 100 µM
TGI (M19-MEL melanoma): > 100 µM
TGI (MALME-3M melanoma): > 100 µM
TGI (MOLT-4 leukemia): > 100 µM
TGI (NCI-H226 lung): > 100 µM
TGI (NCI-H23 lung): > 100 µM
TGI (NCI-H522 lung): > 100 µM
TGI (OVCAR-3 ovarian): > 100 µM
TGI (OVCAR-4 ovarian): > 100 µM
TGI (OVCAR-5 ovarian): > 100 µM
TGI (OVCAR-8 ovarian): > 100 µM
TGI (RPMI-8226 leukemia): > 100 µM
TGI (RXF-631 renal): > 100 µM
TGI (SF-268 CNS): > 100 µM
TGI (SF-295 CNS): > 100 µM
TGI (SF-539 CNS): > 100 µM
TGI (SK-MEL-2 melanoma): > 100 µM
TGI (SK-MEL-28 melanoma): > 100 µM
TGI (SK-MEL-5 melanoma): > 100 µM
TGI (SK-OV-3 ovarian): > 100 µM
TGI (SN12C renal): > 100 µM
TGI (SNB-19 CNS): > 100 µM
TGI (SNB-75 CNS): > 100 µM
TGI (SNB-78 CNS): > 100 µM
TGI (SR leukemia): > 100 µM
TGI (SW-620 colon): > 100 µM
TGI (TK-10 renal): > 100 µM
TGI (U251 CNS): > 100 µM
TGI (UACC-257 melanoma): > 100 µM
TGI (UACC-62 melanoma): > 100 µM
TGI (UO-31 renal): > 100 µM

CCOC(OC1=C(C#N)CCC1)C(C)[Se]c1ccccc1 (stereo unspecified)
TGI (786-0 renal): 27.8 µM
TGI (A498 renal): > 100 µM
TGI (A549 NSCLC): > 100 µM
TGI (ACHN renal): 96.2 µM
TGI (CAKI-1 renal): > 100 µM
TGI (CCRF-CEM leukemia): > 100 µM
TGI (COLO 205 colon): > 100 µM
TGI (DLD-1 colon): 87.6 µM
TGI (DMS 114 small cell lung): 14.2 µM
TGI (DMS 273 small cell lung): 29.7 µM
TGI (EKVX NSCLC): 82.6 µM
TGI (HCC-2998 colon): > 100 µM
TGI (HCT-116 colon): 42.4 µM
TGI (HCT-15 colon): 35.2 µM
TGI (HL-60(TB) leukemia): 73.8 µM
TGI (HOP-18 NSCLC): 55.3 µM
TGI (HOP-62 NSCLC): > 100 µM
TGI (HOP-92 NSCLC): 49.3 µM
TGI (HT29 colon): > 100 µM
TGI (IGROV1 ovarian): 68.8 µM
TGI (K-562 leukemia): > 100 µM
TGI (KM12 colon): > 100 µM
TGI (KM20L2 colon): > 100 µM
TGI (LOX IMVI melanoma): 22.9 µM
TGI (LXFL 529 NSCLC): 46 µM
TGI (M14 melanoma): 33.4 µM
TGI (M19-MEL melanoma): 30.9 µM
TGI (MALME-3M melanoma): 51.9 µM
TGI (MOLT-4 leukemia): 43.7 µM
TGI (NCI-H226 lung): 51.7 µM
TGI (NCI-H23 lung): 26.6 µM
TGI (NCI-H460 lung): > 100 µM
TGI (NCI-H522 lung): 26.7 µM
TGI (OVCAR-3 ovarian): 42.5 µM
TGI (OVCAR-4 ovarian): 30.5 µM
TGI (OVCAR-5 ovarian): > 100 µM
TGI (OVCAR-8 ovarian): 35.9 µM
TGI (RPMI-8226 leukemia): 53.1 µM
TGI (RXF 393 renal): 34.7 µM
TGI (RXF-631 renal): 26.3 µM
TGI (SF-268 CNS): 46.6 µM
TGI (SF-295 CNS): 71.6 µM
TGI (SF-539 CNS): 41 µM
TGI (SK-MEL-2 melanoma): > 100 µM
TGI (SK-MEL-28 melanoma): 96.9 µM
TGI (SK-MEL-5 melanoma): 34 µM
TGI (SK-OV-3 ovarian): > 100 µM
TGI (SN12C renal): 35.8 µM
TGI (SNB-19 CNS): > 100 µM
TGI (SNB-75 CNS): 77.9 µM
TGI (SNB-78 CNS): > 100 µM
TGI (SR leukemia): 34.8 µM
TGI (TK-10 renal): > 100 µM
TGI (U251 CNS): 21.5 µM
TGI (UACC-257 melanoma): > 100 µM
TGI (UACC-62 melanoma): 43.9 µM
TGI (UO-31 renal): 67.4 µM

CSc1nc(NC2OC(COC(C)=O)C(OC(C)=O)C(OC(C)=O)C2OC(C)=O)c(N=CC=Nc2c(NC3OC(COC(C)=O)C(OC(C)=O)C(OC(C)=O)C3OC(C)=O)nc(SC)[nH]c2=O)c(=O)[nH]1 (stereo unspecified)
TGI (786-0 renal): > 100 µM
TGI (A498 renal): > 100 µM
TGI (A549 NSCLC): > 100 µM
TGI (ACHN renal): > 100 µM
TGI (COLO 205 colon): > 100 µM
TGI (DLD-1 colon): > 100 µM
TGI (DMS 114 small cell lung): > 100 µM
TGI (DMS 273 small cell lung): > 100 µM
TGI (EKVX NSCLC): > 100 µM
TGI (HCC-2998 colon): > 100 µM
TGI (HCT-116 colon): > 100 µM
TGI (HCT-15 colon): > 100 µM
TGI (HL-60(TB) leukemia): > 100 µM
TGI (HOP-18 NSCLC): > 100 µM
TGI (HOP-62 NSCLC): > 100 µM
TGI (HOP-92 NSCLC): > 100 µM
TGI (HT29 colon): > 100 µM
TGI (IGROV1 ovarian): > 100 µM
TGI (K-562 leukemia): > 100 µM
TGI (KM12 colon): > 100 µM
TGI (KM20L2 colon): > 100 µM
TGI (LOX IMVI melanoma): > 100 µM
TGI (LXFL 529 NSCLC): > 100 µM
TGI (M14 melanoma): > 100 µM
TGI (M19-MEL melanoma): > 100 µM
TGI (MALME-3M melanoma): > 100 µM
TGI (NCI-H23 lung): > 100 µM
TGI (NCI-H460 lung): > 100 µM
TGI (NCI-H522 lung): > 100 µM
TGI (OVCAR-3 ovarian): > 100 µM
TGI (OVCAR-4 ovarian): > 100 µM
TGI (OVCAR-5 ovarian): > 100 µM
TGI (OVCAR-8 ovarian): > 100 µM
TGI (RPMI-8226 leukemia): > 100 µM
TGI (RXF 393 renal): > 100 µM
TGI (RXF-631 renal): > 100 µM
TGI (SF-268 CNS): > 100 µM
TGI (SF-295 CNS): > 100 µM
TGI (SF-539 CNS): > 100 µM
TGI (SK-MEL-2 melanoma): > 100 µM
TGI (SK-MEL-28 melanoma): > 100 µM
TGI (SK-MEL-5 melanoma): > 100 µM
TGI (SK-OV-3 ovarian): > 100 µM
TGI (SN12C renal): > 100 µM
TGI (SNB-19 CNS): > 100 µM
TGI (SNB-75 CNS): > 100 µM
TGI (SNB-78 CNS): > 100 µM
TGI (SR leukemia): > 100 µM
TGI (SW-620 colon): > 100 µM
TGI (TK-10 renal): > 100 µM
TGI (U251 CNS): > 100 µM
TGI (UACC-257 melanoma): > 100 µM
TGI (UACC-62 melanoma): > 100 µM
TGI (UO-31 renal): > 100 µM
